Results taken from patent publication US20260234165A1, “MACROCYCLIC COMPOUNDS, PREPARATION METHOD THEREFOR, AND USE THEREOF” (GENFLEET THERAPEUTICS (SHANGHAI) INC., priority 2004, published 2026).
Where two headings read alike, the source gives them in different places.

Key:
[1] = test system: p-ERK in NCI-H441 cells (KRAS G12V mutation); experiment: Cell p-ERK assay (HTRF) in NCI-H441 cells; assay type: cell-based, human
Summary of the method: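 AsPC-1 (10000/well) or NCI-H441 (20000/well) cells were seeded in RPMI-1640 with 10% FBS, grown overnight, then exposed to 3.16-fold compound dilutions (0.1% DMSO) for 3 h at 37 °C. Lysates were read for phospho-ERK T202/Y204 by HTRF; IC50 came from four-parameter fits of inhibition versus DMSO and blank wells.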

[2] = test system: p-ERK in AsPC-1 cells (KRAS G12D mutation); experiment: Cell p-ERK assay (HTRF) in AsPC-1 cells; assay type: cell-based, human
Method: AsPC-1 cells were purchased from ATCC, Cat. No. CRL-1682: NCI-H441 cells were purchased from ATCC, Cat. No. HTB-174: RPMI-1640 medium was purchased from Gibco, Cat. No. I1875-093: FBS was purchased from Gibco, Cat. No. 10099-141C: penicillin/streptomycin double-antibiotic solution (PS) was purchased from Gibco, Cat. No. 15140-122: trypsin (containing EDTA) was purchased from Gibco, Cat. No. 25200-072; DMSO was purchased from VWRAMRESCO, Cat. No. 0231-500ML; 96-well cell culture plates were purchased from Corning, Cat. No. 3599: white-bottomed, opaque 96-well plates were purchased from Cisbio, Cat. No. 66PL96025; Advance ERK phospho-T202/Y204 kit was purchased from Cisbio, Cat. No. 64AERPEH; cell counter was purchased from CHEMOMETEC, model: NC-200; microplate reader was purchased from PerkinElmer, model: EnVision.
AsPC-1, a human pancreatic cancer cell strain endogenously containing a KRAS^G12D mutation, was cultured in a complete medium containing RPMI-1640+10% FBS+1% PS. NCI-H441, a human non-small cell lung cancer cell strain endogenously containing a KRAS^G12V mutation, was cultured in a complete medium containing RPMI-1640+10% FBS+1% PS.
The cells were digested with trypsin (containing EDTA), collected in their corresponding complete media, and counted. The density of the cell suspensions was adjusted with their corresponding complete media, and 10000 AsPC-1 cells or 20000 NCI-H441 cells per well were seeded into a 96-well cell culture plate, with the volume of the medium in each well being 80 μL.
The cell culture plate was incubated in an incubator at 37° C. with 5% CO2 overnight. A series of 3.16-fold gradient dilutions of a 1000- compound stock solution were prepared with DMSO, and then diluted 200-fold with the complete medium described above to give 5′ compound stock solutions. On the day after cell seeding, 20 μL of the 5× compound stock solution was added to each cell culture well. As a result, the final concentration of the compound in the cell culture well became 1×, and the DMSO content in the well was 0.1%. In addition to the compound-treated wells described above, cell-containing DMSO control wells were also set. A complete medium containing 0.5% DMSO was added at 20 μL/well. After the mixture was well mixed, the culture plate was incubated in the incubator at 37° C. with 5% CO2 for another 3 h. The medium was then removed from the culture wells, and 50 μL of cell lysis buffer (from Advance ERK phospho-T202,Y204 kit) was added to each well. The mixture was well mixed and incubated for 30 min. Then, 16 μL of the mixture was transferred to a white-bottomed, opaque 96-well assay plate, and separately, 16 μL of cell lysis buffer was added to additional wells (serving as blank wells) in the assay plate. After the transfer was completed, 4 μL of p-ERK HTRF antibody mixture (from Advance ERK phospho-T202/Y204 kit) was added to each well of the assay plate, followed by a 4-hour incubation. The HTRF signal values (RLU) were then measured using a microplate reader, and the inhibition rate of the compound against p-ERK levels was calculated as follows: IR (%)=(RLUDMSO−RLUcompound)/(RLUDMSO−RLUblank)×100%, where RLUDMSO is the average HTRF signal value from the DMSO control well samples, RLUblank is the average HTRF signal value from the blank well samples, and RLUcompound is the HTRF signal value from the compound-treated well samples. Using an XLfit software, the IR (%) values were plotted against the logarithm of the compound concentrations, and the dose-response curves were fitted using the four-parameter method to calculate the IC50 values.

[3] = NCI-H441 cells, 3 h compound incubation, HTRF p-ERK T202/Y204, read-out: H441 p-ERK IC50
[4] = Homo sapiens, NCI-H441, 3 h, NCI-H441 cells, 3 h compound incubation, HTRF p-ERK T202/Y204, read-out: H441 p-ERK IC50
[5] = Homo sapiens, ASPC1, 3 h, AsPC-1 cells, 3 h compound incubation, HTRF p-ERK T202/Y204, read-out: AsPC-1 p-ERK IC50

SMILES	IC50 [1, 3] [nM]	IC50 [1, 4] [nM]	IC50 [2, 5] [nM]	also measured
C=C1CCN2CCN(c3cnc([C@H](C)OC)c(-c4c5c6cc(ccc6n4CC)-c4csc(n4)C[C@H](NC(=O)[C@H]4[C@H](C)[C@@H]4C)C(=O)N4CCC[C@H](N4)C(=O)OCC(C)(C)C5)c3)C[C@H]2C1 (atropisomer, axis not shown; (Sa)) [Compound Z549, (1r,2R,3S)—N-((6^3S,4S,Z)-1^1-ethyl-(Sa)-1^2-(2-((S)-1-methoxyethyl)-5-((R)-8-methyleneoctahydro-2H-pyrido[1,2-a]pyrazin-2-yl)pyridin-3-yl)-10,10-dimethyl-5,7-dioxo-6^1,6^2,6^3,6^4,6^5,6^6-hexahydro-1′H-8-oxa-2(4,2)-thiazola-1(5,3)-indola-6(1,3)-pyridazinacycloundecaphane-4-yl)-2,3-dimethylcyclopropane-1-carboxamide]	26.7			IC50 ([2]; AsPC-1 cells, 3 h compound incubation, HTRF p-ERK T202/Y204, read-out: AsPC-1 p-ERK IC50): 32.6 nM
CCn1c(-c2cc(C#CCN3CCC(C#N)CC3)cnc2[C@H](C)OC)c2c3cc(ccc31)-c1csc(n1)C[C@H](Nc1nnc3cc(C)ccn13)C(=O)N1CCC[C@H](N1)C(=O)OCC(C)(C)C2 (atropisomer, axis not shown; (Ra)) [Compound Z959]		1.01	4.15	
CCn1c(-c2cc(C#CC(=O)N3CCCOCC3)cnc2[C@H](C)OC)c2c3cc(ccc31)-c1csc(n1)C[C@H](NC(=O)[C@H]1[C@H](C)[C@@H]1C)C(=O)N1CCC[C@H](N1)C(=O)OCC(C)(C)C2 [Compound Z810A, (1r,2R,3S)—N-((6^3S,4S,Z)-1^2-ethyl-1^2-(5-(3-(1,4-oxazepan-4-yl)-3-oxoprop-1-yn-1-yl)-2-((S)-1-methoxyethyl)pyridin-3-yl)-10,10-dimethyl-5,7-dioxo-6^1,6^2,6^3,6^4,6^5,6^6hexahydro-1^1H-8-oxa-2(4,2)-thiazola-1(5,3)-indola-6(1,3)-pyridazinacycloundecaphane-4-yl)-2,3-dimethylcyclopropane-1-carboxamide]	0.63		1.22	
CCn1c(-c2cc(C#CCN3CCC(O)(c4cccc(C)[n+]4[O-])CC3)cnc2[C@H](C)OC)c2c3cc(ccc31)-c1csc(n1)C[C@H](NC(=O)[C@H]1[C@H](C)[C@@H]1C)C(=O)N1CCC[C@H](N1)C(=O)OCC(C)(C)C2 (atropisomer, axis not shown; (Ra)) [Compound Z1055, 2-(1-(3-(5-((6^3S,4S,Z)-4-((r,2R,3S)-2,3-dimethylcyclopropane-1-carboxamido)-1^1-ethyl-10,10-dimethyl-5,7-dioxo-6^1,6^2,6^3,6^4,6^5,6^6-hexahydro-1^1H-8-oxa-2(4.2)-thiazola-1(5,3)-indola-6(1.3)-pyridazinacycloundecaphane-12-yl)-(Ra)-6-((S)-1-methoxyethyl)pyridin-3-yl)prop-2-yn-1-yl)-4-hydroxypiperidin-4-yl)-6-methylpyridine 1-oxide]				IC50 ([1]; Homo sapiens, NCI-H441, 3 h, read-out: H441 p-ERK IC50(nM)): 0.19 nM; IC50 ([2]; Homo sapiens, ASPC1, 3 h, read-out: AsPC-1 p-ERK IC50(nM)): 0.32 nM
CCn1c(-c2cc(C#CCN3CCCOCC3)c[n+]([O-])c2C(C)C)c2c3cc(ccc31)-c1csc(n1)C[C@H](NC(=O)[C@H]1[C@H](C)[C@@H]1C)C(=O)N1CCC[C@H](N1)C(=O)OCC(C)(C)C2 (atropisomer, axis not shown; (Ra)) [Compound Z950, (1r,2R,3S)—N-((6^3S,4S,Z)—(Ra)-1^2-(5-(3-(1,4-oxazepan-4-yl)prop-1-yn-1-yl)-2-isopropylpyridin-1-oxide-3-yl)-1^1-ethyl-10,10-dimethyl-5,7-dioxo-6^1,6^2,6^3,6^4,6^5,6^6-hexahydro-1^1H-8-oxa-2(4,2)-thiazola-1(5,3)-indola-6(1,3)-pyridazinacycloundecaphane-4-yl)-2,3-dimethylcyclopropane-1-carboxamide]		0.16	0.27	
